Test results reported in patent US7045145B1, “Transdermal contraceptive delivery system and process” (Agile Therapeutics, Inc., priority 1999, dated 2006).

Assay: clinical
Conditions: female, human, in vivo

Cmax: > 2 ng/mL
serum levels compared with the level considered necessary for effective contraception in women: exceeded the level (200–600 pg/ml)
SMILES: C#C[C@]1(O)CC[C@H]2[C@@H]3CCC4=CC(=O)CC[C@@H]4[C@H]3CC[C@@]21CC [levonorgestrel]
